Laboratory results taken from article PMC3561163 (PLoS Neglected Tropical Diseases, 2013).
Marks after values point to notes of the source that are not given here.

Key:
[1] = system: 14 different HLA class II molecules; format: binding, human
[2] = system: PBMCs from YF-17DD vaccinees; format: cell-based, human
[3] = system: CD4^+ depleted PBMCs from YF-17DD vaccinees; format: cell-based, human
[4] = system: CD8^+ T-cells isolated from HLA-A*0201 positive individuals; format: cell-based, human

Molecule | Level of peptide promiscuity [1] | Total DR bound [1] | ELISPOT Max [2] | ELISPOT Min [2] | No. of responders [2] | Recognition frequency (%) (Table S1) [2] | IFN-γ SFC Average ± STDEV [3] | IFN-γ SFC Median [3] | No. of responders (CD4-depleted PBMCs) [3] | yield of cellular proliferation of the CD8^+ T-cell population expanded by aAPCs [4] | T-cell activation by 9-mers covering NS4b77–91 [2]
CC[C@H](C)[C@H](NC(=O)CNC(=O)[C@H](CCCCN)NC(=O)[C@H](CC(N)=O)NC(=O)[C@@H](NC(=O)[C@H](C)NC(=O)[C@H](C)NC(=O)[C@@H](NC(=O)[C@H](CC(C)C)NC(=O)[C@H](CC(=O)O)NC(=O)[C@H](CC(=O)O)NC(=O)[C@H](C)N)[C@@H](C)O)[C@@H](C)CC)C(=O)N[C@@H](CC(C)C)C(=O)N[C@H](C(=O)N[C@H](C(=O)O)[C@@H](C)O)C(C)C [Env337–351] | intermediate (key: low (affinity to 2 to 5 HLA class II molecules bound); intermediate (affinity to 6 to 9 HLA class II molecules bound); highly promiscuous (binding to ≥10 HLA molecules)) | 9 | 30 SFC/10^6 PBMC | 12 SFC/10^6 PBMC | 3 | 17% | – | – | – | – | –
CC[C@H](C)[C@H](NC(=O)CNC(=O)[C@H](CCCCN)NC(=O)[C@@H](N)CC(N)=O)C(=O)N[C@@H](CC(C)C)C(=O)N[C@H](C(=O)N[C@H](C(=O)N[C@H](C(=O)N[C@@H](CC(N)=O)C(=O)N1CCC[C@H]1C(=O)N[C@H](C(=O)N[C@@H](C)C(=O)N[C@@H](CO)C(=O)N[C@H](C(=O)N[C@@H](CC(N)=O)C(=O)O)[C@@H](C)O)[C@@H](C)CC)C(C)C)[C@@H](C)O)C(C)C [Env345–359] | highly promiscuous (key: low (affinity to 2 to 5 HLA class II molecules bound); intermediate (affinity to 6 to 9 HLA class II molecules bound); highly promiscuous (binding to ≥10 HLA molecules)) | 13 | 271 SFC/10^6 PBMC | 10 SFC/10^6 PBMC | 9 | 33% | 315±160 SFC (CD4-depleted PBMCs/10^6) | 287 SFC (CD4-depleted PBMCs/10^6) | 3 | – | –
CC[C@H](C)[C@H](NC(=O)[C@H](CC(C)C)NC(=O)[C@@H](NC(=O)[C@H](CCC(=O)O)NC(=O)[C@@H](N)CC(=O)O)C(C)C)C(=O)N[C@@H](CCC(=O)O)C(=O)N[C@H](C(=O)N[C@@H](CC(N)=O)C(=O)N1CCC[C@H]1C(=O)N1CCC[C@H]1C(=O)N[C@@H](Cc1ccccc1)C(=O)NCC(=O)N[C@@H](CC(=O)O)C(=O)N[C@@H](CO)C(=O)N[C@@H](Cc1ccc(O)cc1)C(=O)O)C(C)C [Env361–375] | – | 10 | 203 SFC/10^6 PBMC | 14 SFC/10^6 PBMC | 4 | 15% | 16±0 SFC (CD4-depleted PBMCs/10^6) | 16 SFC (CD4-depleted PBMCs/10^6) | 2 | – | –
CSCC[C@H](NC(=O)[C@@H](NC(=O)[C@@H](N)C(C)C)C(C)C)C(=O)N[C@H](C(=O)N[C@@H](CO)C(=O)N[C@@H](CC(C)C)C(=O)N[C@@H](C)C(=O)N[C@@H](CC(C)C)C(=O)N[C@H](C(=O)NCC(=O)N[C@@H](C)C(=O)N[C@@H](C)C(=O)N[C@@H](CC(C)C)C(=O)N[C@@H](Cc1c[nH]cn1)C(=O)N1CCC[C@H]1C(=O)O)C(C)C)[C@@H](C)O [NS2b97–111] | intermediate (key: low (affinity to 2 to 5 HLA class II molecules bound); intermediate (affinity to 6 to 9 HLA class II molecules bound); highly promiscuous (binding to ≥10 HLA molecules)) | 7 | 26 SFC/10^6 PBMC | 10 SFC/10^6 PBMC | 6 | 10% | – | – | – | – | –
CC[C@H](C)[C@H](NC(=O)[C@@H](NC(=O)[C@H](CCC(=O)O)NC(=O)CNC(=O)[C@H](CC(N)=O)NC(=O)[C@H](CCCNC(=N)N)NC(=O)[C@H](CC(N)=O)NC(=O)[C@@H](NC(=O)[C@@H](NC(=O)[C@@H]1CCCN1C(=O)[C@H](CO)NC(=O)CNC(=O)[C@H](CO)NC(=O)[C@@H](NC(=O)CN)[C@@H](C)O)[C@@H](C)CC)C(C)C)C(C)C)C(=O)O [NS3_137–151] | – | 1 | 137 SFC/10^6 PBMC | 18 SFC/10^6 PBMC | 5 | 11% | – | – | 0 | – | –
CSCC[C@H](NC(=O)[C@H](C)NC(=O)[C@H](CCSC)NC(=O)[C@@H](N)CCCNC(=N)N)C(=O)N[C@H](C(=O)N[C@@H](CC(=O)O)C(=O)N[C@H](C(=O)N[C@H](C(=O)N1CCC[C@H]1C(=O)N[C@@H](Cc1ccccc1)C(=O)NCC(=O)N[C@@H](CCC(N)=O)C(=O)N[C@@H](CCC(N)=O)C(=O)N[C@@H](CCCNC(=N)N)C(=O)N[C@H](C(=O)O)C(C)C)[C@@H](C)O)[C@@H](C)O)[C@@H](C)O [NS5_341–355] | low (key: low (affinity to 2 to 5 HLA class II molecules bound); intermediate (affinity to 6 to 9 HLA class II molecules bound); highly promiscuous (binding to ≥10 HLA molecules)) | 4 | 267 SFC/10^6 PBMC | 27 SFC/10^6 PBMC | 6 | 12% | – | – | 0 | – | –
CC(C)[C@H](NC(=O)[C@H](CCCNC(=N)N)NC(=O)[C@H](CCC(N)=O)NC(=O)[C@H](CCC(N)=O)NC(=O)CNC(=O)[C@H](Cc1ccccc1)NC(=O)[C@@H]1CCCN1C(=O)[C@@H](NC(=O)[C@@H](NC(=O)[C@H](CC(=O)O)NC(=O)[C@@H](N)[C@@H](C)O)[C@@H](C)O)[C@@H](C)O)C(=O)N[C@@H](Cc1ccccc1)C(=O)N[C@@H](CCCCN)C(=O)N[C@@H](CCC(=O)O)C(=O)N[C@@H](CCCCN)C(=O)O [NS5_345–359] | low (key: low (affinity to 2 to 5 HLA class II molecules bound); intermediate (affinity to 6 to 9 HLA class II molecules bound); highly promiscuous (binding to ≥10 HLA molecules)) | 2 | 914 SFC/10^6 PBMC | 55 SFC/10^6 PBMC | 8 | 17% | 66±71 SFC (CD4-depleted PBMCs/10^6) | 32 SFC (CD4-depleted PBMCs/10^6) | 3 | – | –
CC[C@H](C)[C@H](NC(=O)[C@H](C)NC(=O)[C@H](CCCNC(=N)N)NC(=O)[C@H](CO)NC(=O)CNC(=O)[C@H](CCCCN)NC(=O)[C@H](C)NC(=O)[C@H](CCCCN)NC(=O)CNC(=O)[C@H](Cc1ccccc1)NC(=O)[C@@H](N)CCC(=O)O)C(=O)N[C@@H](Cc1c[nH]c2ccccc12)C(=O)N[C@@H](Cc1ccc(O)cc1)C(=O)N[C@@H](CCSC)C(=O)N[C@@H](Cc1c[nH]c2ccccc12)C(=O)O [NS5_465–479] | intermediate (key: low (affinity to 2 to 5 HLA class II molecules bound); intermediate (affinity to 6 to 9 HLA class II molecules bound); highly promiscuous (binding to ≥10 HLA molecules)) | 7 | 1593 SFC/10^6 PBMC | 10 SFC/10^6 PBMC | 6 | 12% | 168±0 SFC (CD4-depleted PBMCs/10^6) | 168 SFC (CD4-depleted PBMCs/10^6) | 2 | – | –
CC[C@H](C)[C@H](NC(=O)[C@H](C)NC(=O)[C@H](CCCNC(=N)N)NC(=O)[C@H](CO)NC(=O)CNC(=O)[C@H](CCCCN)NC(=O)[C@H](C)N)C(=O)N[C@@H](Cc1c[nH]c2ccccc12)C(=O)N[C@@H](Cc1ccc(O)cc1)C(=O)N[C@@H](CCSC)C(=O)N[C@@H](Cc1c[nH]c2ccccc12)C(=O)N[C@@H](CC(C)C)C(=O)NCC(=O)N[C@@H](C)C(=O)N[C@@H](CCCNC(=N)N)C(=O)O [NS5_469–483] | highly promiscuous (key: low (affinity to 2 to 5 HLA class II molecules bound); intermediate (affinity to 6 to 9 HLA class II molecules bound); highly promiscuous (binding to ≥10 HLA molecules)) | 10 | 1828 SFC/10^6 PBMC | 13 SFC/10^6 PBMC | 8 | 17% | – | – | – | – | –
CC(C)C[C@H](NC(=O)[C@H](C)NC(=O)[C@H](CCC(=O)O)NC(=O)[C@H](Cc1ccccc1)NC(=O)[C@H](CCC(=O)O)NC(=O)[C@H](CC(C)C)NC(=O)[C@H](Cc1ccc(O)cc1)NC(=O)[C@H](CCCNC(=N)N)NC(=O)[C@H](C)NC(=O)CN)C(=O)NCC(=O)N[C@@H](Cc1ccccc1)C(=O)N[C@@H](CC(C)C)C(=O)N[C@@H](CC(N)=O)C(=O)N[C@@H](CCC(=O)O)C(=O)O [NS5_481–495] | highly promiscuous (key: low (affinity to 2 to 5 HLA class II molecules bound); intermediate (affinity to 6 to 9 HLA class II molecules bound); highly promiscuous (binding to ≥10 HLA molecules)) | 10 | 1022 SFC/10^6 PBMC | 13 SFC/10^6 PBMC | 11 | 23% | 95±0 SFC (CD4-depleted PBMCs/10^6) | 95 SFC (CD4-depleted PBMCs/10^6) | 2 | – | –
LWNGPMAVS [NS4b77–85] | – | – | – | – | – | – | – | – | – | 2×10^6 | induced the most T-cell activation
